# In article PMC7436000, “The Spectrum of Design Solutions for Improving the Activity-Selectivity Product of Peptide Antibiotics against Multidrug-Resistant Bacteria and Prostate Cancer PC-3 Cells” (Molecules, 2020):
# Read-outs that look alike come from different tables or passages of the source. Peptide text beside a SMILES is read from it.
# Assays:
# E. coli clin. isolate = format: cell-based, Escherichia coli; settings: clin. isolate
# From the text: (§1) The American Type Culture Collection (ATCC, Rockville, MD, USA) strains and Escherichia coli MG1655 were used as standard bacterial strains. Gram-negative ATCC strains consisted of Escherichia coli (ATCC 25922), Pseudomonas aeruginosa (ATCC 27853), Acinetobacter baumannii (ATCC 19606), and Klebsiella pneumoniae (ATCC 13883). The only Gram-positive standard strain chosen for testing was Staphylococcus aureus (ATCC 29213). Clinical isolates with confirmed multidrug-resistance phenotype were obtained from different wards of the University Hospital Center, Split, Croatia. We described their origin, antibiograms, and resistance phenotype previously. In the same paper, we described the procedure for antimicrobial susceptibility testing on planktonic cells, using the microdilution method in 96-well microtiter plates.
# (§2) Briefly, cells were grown on agar plates and a single colony was sampled to generate a liquid culture (LC) grown overnight at 37 °C. The culture was sampled, resuspended in fresh medium, and allowed to grow at 37 °C, until reaching the mid-exponential phase. Lysogeny broth (LB) was used in the case of the E. coli MG1655 cells. Mueller Hinton (MH) medium was used for all other bacterial strains. Serial 2-fold dilutions of the peptide (64 μM to 0.0625 μM) were prepared from peptide stock solution in PBS, and added to a final load of 5 × 10^5 CFU/mL in 100 μL total volume of medium per well in a 96-well plate (Brand 781660). Bacterial cultures were incubated with peptides for 18 h to 24 h at 37 °C. The minimum inhibitory concentration (MIC) was defined as the lowest concentration of the peptide, at which no visible bacterial growth was observed. The MIC for each of the tested peptides was determined in at least three individual assays under the same laboratory conditions. […] At the end of the incubation period for MIC or MBC, the determination of the OD600 was analyzed.
# P. aerug. clin. isolate = format: cell-based, Pseudomonas aeruginosa
# From the text: as §1, §2
# K. pneum. clin. isolate = format: cell-based, Klebsiella pneumoniae
# From the text: as §1, §2
# [1] = system: Acinetobacter baumannii (ATCC 19606); format: cell-based; settings: ATCC 19606
# From the text: as §1, §2
# [2] = system: Escherichia coli (ATCC 25922); format: cell-based; settings: ATCC 25922
# From the text: as §1, §2
# Escherichia coli MG1655 = format: cell-based
# From the text: as §1, §2
# [3] = system: Klebsiella pneumoniae (ATCC 13883); format: cell-based; settings: ATCC 13883
# From the text: as §1, §2
# [4] = system: Pseudomonas aeruginosa (ATCC 27853); format: cell-based; settings: ATCC 27853
# From the text: as §1, §2
# [5] = system: Staphylococcus aureus (ATCC 29213); format: cell-based
# From the text: as §1, §2
# A. baum. clin. isolate = format: cell-based, Acinetobacter baumannii
# From the text: as §1, §2
# S. aureus clin. isolate = format: cell-based, Staphylococcus aureus; settings: clin. isolate
# From the text: as §1, §2
# human erythrocytes = test: Hemolysis of human erythrocytes; format: cell-based; settings: for HC10: concentration causing 10% hemolysis, 0.2% Triton = 100%; for HC10 / HC20 / HC50: 0.5% RBC in PBS, 1 h, 37 °C, absorbance 450 nm, triplicate; for HC20: concentration causing 20% hemolysis; for HC50: concentration causing 50% hemolysis
# Protocol: Fresh blood was obtained from a healthy donor. Blood was stored in a tube containing EDTA at 4 °C and used within 24 h. Before use, 1 mL of blood was centrifuged (400× g, 10 min), and the supernatant was discarded. Moreover, 500 μL cold PBS with EDTA (1 mM) was added, mixed and centrifuged. The supernatant was discarded. Furthermore, 500 μL of cold PBS with EDTA (1 mM) was added, from which a dilution of 1% blood was made. Peptides were prepared in PBS at a 2 × concentration in 100 µL. […] The suspension was incubated at 37 °C for 1 h and centrifuged at 10,000× g for 5 min. […] After centrifugation, the supernatant was added to a 96-well microtiter plate (150–180 μL), and the absorbance was measured at 450 nm, using EnSight Multimode Plate Reader (PerkinElmer, Inc.). Each measurement was done in triplicate. […] We opted to also include the extrapolated HC50 in our results, to permit comparisons with older toxicity results. However, the HC20 measurements were used for ranking the peptides according to their selectivity and overall performance (Figure 1 and Figure 2 and Table 2).
# [6] = system: human primary dermal fibroblasts; format: cell-based
# Protocol: (§3) Prostate cancer cells were donated by the University of Split, School of Medicine. Cells were cultured in RMPI-1640 medium, supplemented with 10% FBS, 1% Penicillin-Streptomycin, and 1% L-Glutamine. Human dermal fibroblasts were purchased from Biopredic (France) and cultured in DMEM medium, supplemented with 10% FBS and 1% Penicillin-Streptomycin. All cell lines were maintained in a humidified incubator with 5% CO2 at 37 °C. Cells were detached using the trypsin-EDTA solution and sub-cultured (7000 cells/well) in a 96-well plate overnight. Peptide stock solutions were prepared in PBS, and cancer cells were treated with 2-fold serial dilutions for 24 h at 37 °C, with 5% CO2. The toxicity of 6 selected peptides was assessed by a standard MTT assay. Treated cells were incubated with MTT working solution (0.5 mg/mL Thiazolyl Blue Tetrazolium Bromide) for 4 h at 37 °C with 5% CO2. Precipitated formazan was dissolved in 200 µL DMSO and absorbance was measured at 595 nm with EnSight Multimode Plate Reader (PerkinElmer, Inc.)
# [7] = system: PC-3 prostate cancer cell line; format: cell-based, human
# Protocol: as §3
Compound,MIC (E. coli clin. isolate) (E. coli clin. isolate),MIC (P. aerug. clin. isolate) (P. aerug. clin. isolate),MIC (K. pneum. clin. isolate) (K. pneum. clin. isolate),MIC (A. baum. ATCC 19606) [1],MIC (E. coli ATCC 25922) [2],MIC (E. coli MG1655) (Escherichia coli MG1655; MG1655),MIC (K. pneum. ATCC 13883) [3],MIC (P. aerug. ATCC 27853) [4],MIC (S. aureus ATCC 29213) [5],MIC (A. baum. clin. isolate) (A. baum. clin. isolate),MIC (S. aureus clin. isolate) (S. aureus clin. isolate),HC10 (human erythrocytes),HC20 (human erythrocytes),IC50 ([6]; 24 h),(TI/ IC50C) vs. MP1 ([7]; 24 h),IC50 ([7]; 24 h),TI (HC20/IC20C) ([7]; 24 h),TI (IC50F/IC50C) ([7]; 24 h),TI/ IC50C ([7]; 24 h),HC50 (human erythrocytes),other results
CC[C@H](C)[C@H](NC(=O)CN)C(=O)N[C@@H](CCCCN)C(=O)N[C@@H](CCCCN)C(=O)N[C@@H](C)C(=O)N[C@H](C(=O)NCC(=O)N[C@@H](CCCCN)C(=O)N[C@@H](C)C(=O)N[C@@H](CC(C)C)C(=O)N[C@@H](CCCCN)C(=O)NCC(=O)N[C@@H](CC(C)C)C(=O)N[C@@H](CCCCN)C(=O)NCC(=O)N[C@@H](CC(C)C)C(=O)N[C@@H](CC(C)C)C(=O)N[C@@H](CCCCN)C(=O)N[C@@H](C)C(=O)N[C@@H](CC(C)C)C(=O)NCC(=O)N[C@@H](CCC(=O)O)C(=O)N[C@@H](CO)C(N)=O)C(C)C [A1A] (H-GIKKAVGKALKGLKGLLKALGES-NH2),32 µM,>64 µM,8 µM,2 µM,1 µM,2 µM,4 µM,64 µM,1 µM,4 to 8 µM,4 µM,25 µM,80 µM,30 µM,5,12 µM,27,2.5,0.21,–,"PEa(20) = SI/MIC(aureus) ([5]; ATCC 29213, 18 h): 80 µM⁻¹; HC50 * (extrapolated) (human erythrocytes; extrapolated, all concentrations tested lysed less than 50% of cells): 125 * µM"
CC[C@H](C)[C@H](NC(=O)CN)C(=O)N[C@@H](CCCCN)C(=O)N[C@@H](CCCCN)C(=O)N[C@@H](Cc1c[nH]c2ccccc12)C(=O)N[C@H](C(=O)N[C@@H](CCCCN)C(=O)NCC(=O)N[C@H](C(=O)N[C@@H](C)C(=O)N[C@@H](CCCCN)C(=O)NCC(=O)N[C@H](C(=O)N[C@@H](C)C(=O)N[C@@H](CCCCN)C(=O)N[C@@H](CC(=O)O)C(=O)N[C@@H](CC(C)C)C(=O)N[C@@H](C)C(=O)N[C@@H](CCCCN)C(=O)N[C@@H](CCCCN)C(=O)N[C@H](C(=O)N[C@@H](CC(C)C)C(N)=O)[C@@H](C)CC)C(C)C)C(C)C)C(C)C [FLEX] (H-GIKKWVKGVAKGVAKDLAKKIL-NH2),0.5 µM,2 to 4 µM,2 to 4 µM,0.5 to 1 µM,0.25 µM,16 µM,0.5 to 1 µM,2 µM,0.25 µM,1 µM,4 µM,6 µM,25 µM,30 µM,18.5,6.25 µM,25,4.8,0.77,–,–
CC[C@H](C)[C@H](NC(=O)[C@H](CCCCN)NC(=O)[C@H](CC(C)C)NC(=O)[C@H](C)NC(=O)[C@H](CCCCN)NC(=O)[C@H](CC(C)C)NC(=O)[C@H](C)NC(=O)[C@@H](NC(=O)[C@H](CCCCN)NC(=O)[C@H](C)NC(=O)[C@@H](NC(=O)[C@@H](N)CCCCN)[C@@H](C)CC)C(C)C)C(=O)N[C@@H](C)C(=O)N[C@@H](CCCCN)C(=O)NCC(=O)N[C@@H](C)C(=O)N[C@@H](CC(C)C)C(=O)N[C@@H](CCCCN)C(=O)N[C@@H](C)C(=O)N[C@@H](CC(C)C)C(N)=O [KIA1] (H-KIAKVALKALKIAKGALKAL-NH2),12 µM,3 µM,12 µM,1.5 µM,0.75 µM,8 µM,3 µM,6 µM,1 µM,1.5 µM,3 µM,3 µM,6 µM,15 µM,1.6,–,1,1,0.07,20 µM,–
"CC[C@H](C)[C@H](N)C(=O)N[C@@H](CC(=O)O)C(=O)N[C@@H](Cc1c[nH]c2ccccc12)C(=O)N[C@@H](CCCCN)C(=O)N[C@@H](CCCCN)C(=O)N[C@@H](CC(C)C)C(=O)N[C@@H](CC(C)C)C(=O)N[C@@H](CC(=O)O)C(=O)N[C@@H](C)C(=O)N[C@@H](C)C(=O)N[C@@H](CCCCN)C(=O)N[C@@H](CCC(N)=O)C(=O)N[C@H](C(=O)N[C@@H](CC(C)C)C(N)=O)[C@@H](C)CC [MP1, reference compound] (H-IDWKKLLDAAKQIL-NH2)",–,–,–,–,–,–,–,–,–,–,–,20 µM,37 µM,–,–,–,–,–,–,170 µM,"MIC (E. coli MG1655) (Escherichia coli MG1655; broth microdilution, LB medium, 5 × 10^5 CFU/mL, 18-24 h, 37 °C, at least three assays): >32 µM; IC50 ([6]; MTT assay, 7000 cells/well, 24 h treatment, 37 °C, 5% CO2, absorbance 595 nm, read-out: IC50F (Fibroblasts)): 150 µM; IC50 ([7]; MTT assay, 7000 cells/well, 24 h treatment, 37 °C, 5% CO2, absorbance 595 nm, read-out: IC50C (PC-3)): 60 µM; TI (HC20/IC20C) ([7]; human erythrocytes vs PC-3): 1; TI/ IC50C ([7]; performance, product of TI and anticancer activity (1/IC50C)): 0.04; (TI/ IC50C) vs. MP1 ([7]; relative performance with respect to MP1 control peptide): 1.0; TI (IC50F/IC50C) ([7]; therapeutic index, fibroblasts vs PC-3): 2.5"
